According to BindingDB's records for doi:10.3109/14756360903169592 (Ufr Des Sciences Pharmaceutiques Et Ingenierie De La Sante, 2010):

Target: T1, Protein farnesyltransferase subunit beta/geranylgeranyltransferase type-1 subunit alpha (Saccharomyces cerevisiae (strain ATCC 204508 / S288c), UniProt P22007+P29703)
T1 sequence (P22007 whole entry): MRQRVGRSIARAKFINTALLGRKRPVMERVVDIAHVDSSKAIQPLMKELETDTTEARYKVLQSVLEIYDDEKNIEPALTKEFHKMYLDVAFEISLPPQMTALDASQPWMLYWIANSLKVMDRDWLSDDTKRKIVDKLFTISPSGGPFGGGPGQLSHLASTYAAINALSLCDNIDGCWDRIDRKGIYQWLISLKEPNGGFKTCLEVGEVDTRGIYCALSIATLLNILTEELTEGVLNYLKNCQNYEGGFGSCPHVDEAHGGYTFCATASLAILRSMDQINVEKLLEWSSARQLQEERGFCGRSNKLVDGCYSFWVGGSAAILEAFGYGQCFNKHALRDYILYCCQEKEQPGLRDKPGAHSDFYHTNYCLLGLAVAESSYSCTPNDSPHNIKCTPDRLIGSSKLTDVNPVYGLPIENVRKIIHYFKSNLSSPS
T1 sequence (P29703 whole entry): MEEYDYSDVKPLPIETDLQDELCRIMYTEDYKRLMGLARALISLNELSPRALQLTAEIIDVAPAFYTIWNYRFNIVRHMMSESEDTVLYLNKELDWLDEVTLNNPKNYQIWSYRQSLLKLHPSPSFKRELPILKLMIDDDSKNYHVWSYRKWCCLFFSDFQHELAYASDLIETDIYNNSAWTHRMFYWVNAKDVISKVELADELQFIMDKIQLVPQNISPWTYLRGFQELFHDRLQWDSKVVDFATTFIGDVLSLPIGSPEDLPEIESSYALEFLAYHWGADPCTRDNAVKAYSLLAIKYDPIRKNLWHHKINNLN
Test: Fluorescence-Based PFTase Inhibition Assay
Settings: pH 7.5; 30 °C
Experimental: Assays were realized on 96-well plates, prepared with Biomek NKMC and Biomek 3000 from Beckman Coulter and read on a Wallac Victor fluorimeter from PerkinElmer. Per well, 20 μL of farnesyl pyrophosphate (10 μM) was added to 180 μL of a solution containing 2 μL of varied concentrations of tested compounds (dissolved in methanol) and 178 μL of a solution composed by 0.1 mL of partially purified recombinant yeast FTase (2.2mg/mL) and 7.0 mL of Dansyl-GCVLS peptide (in the following buffer: 5.8 mM DTT, 12 mM MgCl2, 12 μM ZnCl2, and 0.09% (w/v) CHAPS, 53 mM Tris/HCl, pH 7.5). Then the fluorescence development was recorded for 15 min (0.7 s per well, 20 repeats) at 30°C with an excitation filter at 340 nm and an emission filter at 486 nm.

| Structure (SMILES) | IC50 |
| --- | --- |
| CC(O)CCC1=CC[C@@H]2C(C)C(=O)O[C@H]2C[C@@H]1C (stereo partly specified) [4,11,13-Tetrahydroxanthinosin (14)] | > 1000 µM |
| CC(O)/C=C/C1=CC[C@H]2[C@H](C[C@@H]1C)OC(=O)[C@@H]2C (stereo partly drawn) [4,11β,13-Tetrahydroxanthatin (8)] | > 1000 µM |
| C/C=C(/C)C(=O)O[C@H]1[C@H]2[C@H](C)C(=O)O[C@@H]2C[C@@H](C)[C@@H]2C=CC(=O)[C@]21C [6-O-angeloylprenolin] | 18.8 µM |
| C=C1C(=O)O[C@@H]2C[C@H](C)[C@]3(/C=C/C(C)=O)O[C@@H]3C[C@H]12 [8-Epi-xanthatin-1,5α-epoxide] | 58 µM |
| CC(=O)CCC1=CC[C@@H]2C(C)C(=O)O[C@H]2C[C@@H]1C (stereo partly specified) [11,13-Dihydroxanthinosin (13)] | 240 µM |
| CC(=O)/C=C/C1=CC[C@H]2[C@H](C[C@@H]1C)OC(=O)[C@@H]2C [11β,13-Dihydroxanthatin (10)] | 210 µM |
| CC(=O)/C=C/[C@@]12O[C@@H]1C[C@H]1[C@H](C[C@@H]2C)OC(=O)[C@@H]1C [11β,13-Dihydroxanthatin-1,5α-epoxide (11)] | 90 µM |
| CC(=O)/C=C/[C@]12O[C@H]1C[C@H]1[C@H](C[C@@H]2C)OC(=O)[C@@H]1C [11β,13-Dihydroxanthatin-1,5β-epoxide (12)] | 66 µM |
| C=C1C(=O)O[C@@H]2C3C4(C=C[C@@]3(C)C3(C4)C(=O)O[C@@H]4[C@H]5C(C)=CC(=O)[C@H]5[C@@H](C)C[C@H](OC(=O)/C(C)=C\C)[C@H]43)[C@](C)(O)CC[C@@H]12 (stereo partly specified) [Arteminolide C'] | 0.95 µM |
| C/C=C(/C)C(=O)O[C@H]1C[C@H](C)[C@@H]2C(=O)C=C(C)[C@@H]2[C@H]2OC(=O)C3(CC45C=C[C@]3(C)C4[C@H]3OC(=O)C(C)[C@@H]3CC[C@@]5(C)O)[C@@H]21 (stereo partly specified) [Arteminolide C] | 1 µM |
| C=C1C(=O)O[C@H]2C[C@H](C)[C@]3(/C=C/C(C)=O)O[C@@H]3C[C@H]12 [Xanthatin-1,5α-epoxide (5)] | 100 µM |

Other lines, results leading:

| IC50 | Structure (SMILES) |
| --- | --- |
| 900 µM | CC(=O)OC(C)/C=C/C1=CC[C@H]2[C@H](C[C@@H]1C)OC(=O)[C@@H]2C (stereo partly drawn) [2,3-(E)-Dehydro-4-epi-isoxanthanol (9)] |
| > 1000 µM | C=C1C(=O)O[C@H]2C[C@H](C)c3cc(C(C)=O)oc3C[C@H]12 [3,5-Oxyxanthatin (7)] |
| 64 µM | C=C1C(=O)O[C@@H]2C[C@H](C)C(/C=C/C(C)=O)=CC[C@H]12 [8-Epi-xanthatin] |
| 633 µM | CC(=O)OC(CC(C)O)C1=CC[C@H]2[C@H](C[C@@H]1C)OC(=O)[C@@H]2C (stereo partly drawn) [11β,13-Dihydro-4-epi-isoxanthanol (16)] |
| 40 µM | C=C1C(=O)O[C@H]2C[C@H](C)C(C(CC(C)OC(C)=O)OC(C)=O)=CC[C@H]12 (stereo partly drawn) [Acetyl-4-epi-isoxanthanol (6)] |
| 40 µM | CC(=O)OC(C)CC(OC(C)=O)C1=CC[C@H]2[C@H](C[C@@H]1C)OC(=O)[C@@H]2C (stereo partly drawn) [Acetyl-11β,13-dihydro-4-epi-isoxanthanol (15)] |
| 100 µM | C=C1C(=O)O[C@H]2C[C@H](C)C(/C=C/C(C)=O)=CC[C@H]12 [Xanthatin (2)] |
| 500 µM | C=C1C(=O)O[C@H]2C[C@H](C)[C@@]3(/C=C/C(C)=O)O[C@H]3C[C@H]12 [Xanthatin-1,5β-epoxide (4)] |
| 150 µM | C=C1C(=O)O[C@H]2C[C@H](C)C(C(CC(C)=O)OC(C)=O)=CC[C@H]12 (stereo partly drawn) [α-Methylene-γ-lactone, 1] |
| > 1000 µM | C=C1C(=O)O[C@H]2C[C@H](C)C(C(CC(C)O)OC(C)=O)=CC[C@H]12 (stereo partly drawn) [α-Methylene-γ-lactone, 3] |
